Each structure is given as a SMILES string.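 Each compound was tested at five concentrations against cells in 96-well plates for 48 hours. Abbreviation: GI50, concentration required for 50% inhibition of growth. TGI: total growth inhibition.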

Some test systems named below: A549 NSCLC; HS 578T breast; MOLT-4 leukemia; PC-3 prostate; SNB-19 CNS; SW-620 colon.
What all share (assay): NCI anticancer screen, dose series, 48 h

As for `CCC(C)CC(C)C(=O)c1c(O)ccn(O)c1=O` (configuration not stated), the GI50 in the test with A549 NSCLC was 1.78 µM; with HS 578T breast, 3.08 µM; with MOLT-4 leukemia, 1.06 µM; in the test on PC-3 prostate it was 1.33 µM; with SNB-19 CNS, 1.19 µM; in the test with SW-620 colon it was 0.607 µM. Besides, the TGI with A549 NSCLC is 36.3 µM; in the test on HS 578T breast, more than 100 µM; with MOLT-4 leukemia, 17.6 µM; in the test on PC-3 prostate, more than 100 µM; in the test with SNB-19 CNS, more than 100 µM; with SW-620 colon, more than 100 µM.
On to `O=[N+]([O-])/C=C/c1cc2ccc3ccccc3c2[nH]1`, for which the TGI was 4.88 µM in the test on A549 NSCLC; 22.2 µM in the test on HS 578T breast; more than 100 µM with MOLT-4 leukemia; 3 µM in the test with PC-3 prostate; 7.79 µM with SNB-19 CNS; 4.87 µM with SW-620 colon.
With `COc1cc2c3c(n(CCCN4CCCNCC4)c(=O)c2cc1OC)-c1cc2c(cc1C3=O)OCO2`, the GI50 in the test with A549 NSCLC was 0.322 µM; in the test with HS 578T breast, 2.09 µM; in the test on MOLT-4 leukemia, 0.0384 µM; with PC-3 prostate, 1.33 µM; in the test on SNB-19 CNS, 1.26 µM; in the test on SW-620 colon, 0.267 µM. Besides, the TGI was found to be 6.95 µM in the test on A549 NSCLC; 14.2 µM in the test on HS 578T breast; 50 µM in the test with MOLT-4 leukemia; 9.97 µM in the test on PC-3 prostate; 9.62 µM in the test with SNB-19 CNS; 12 µM with SW-620 colon.
With `Cc1cc(C(O)(c2ccc(Nc3ccccc3)cc2)c2ccc(Nc3ccc(S(=O)(=O)O)cc3)cc2)ccc1N` (configuration not stated), the GI50 was 1.55 µM in the test on A549 NSCLC; 1.5 µM in the test on HS 578T breast; 0.445 µM in the test on MOLT-4 leukemia; 1.31 µM with PC-3 prostate; 1.39 µM with SNB-19 CNS; 0.818 µM in the test on SW-620 colon. In addition, the TGI was 3.25 µM with A549 NSCLC; 5.55 µM in the test on HS 578T breast; more than 100 µM with MOLT-4 leukemia; 6.18 µM in the test on PC-3 prostate; 3.48 µM with SNB-19 CNS; 3.27 µM with SW-620 colon.
On to `O=C1c2cccnc2C(=O)c2c1c(C(=O)OCCc1ccccn1)c1ccccn21`, for which the GI50 is 0.248 µM with A549 NSCLC; less than 0.0338 µM in the test on HS 578T breast; 1.09 µM in the test with MOLT-4 leukemia; 0.0563 µM in the test with PC-3 prostate; 0.0308 µM in the test with SNB-19 CNS; less than 0.01 µM with SW-620 colon. Besides, the TGI in the test with A549 NSCLC is 1.56 µM; in the test on HS 578T breast, 3.21 µM; in the test with MOLT-4 leukemia, more than 36.7 µM; in the test on PC-3 prostate, 6.57 µM; in the test with SNB-19 CNS, 1.59 µM; in the test on SW-620 colon it was more than 44.8 µM.
Take `NCCCNc1nc2ccc(Cl)cc2c2c(=O)c3cc(F)ccc3sc12`: the GI50 in the test with A549 NSCLC is 1.77 µM; in the test with HS 578T breast it was 3.22 µM; in the test on MOLT-4 leukemia it was 1.87 µM; in the test on PC-3 prostate it was 3.43 µM; with SNB-19 CNS, 9.43 µM; in the test on SW-620 colon it was 1.74 µM. The TGI was 3.89 µM in the test with A549 NSCLC; 17.7 µM with HS 578T breast; 3.95 µM in the test on MOLT-4 leukemia; 14.2 µM with PC-3 prostate; 25.4 µM with SNB-19 CNS; 3.32 µM with SW-620 colon.
Regarding `Oc1ccc(Cc2ccc(O)c(C3CC(c4ccc(Cl)cc4)=NN3)c2)cc1C1CC(c2ccc(Cl)cc2)=NN1` (configuration not stated), the GI50 in the test with A549 NSCLC is 2.79 µM; in the test on HS 578T breast, 2.48 µM; in the test with MOLT-4 leukemia it was 2.84 µM; with PC-3 prostate, 3.67 µM; in the test on SNB-19 CNS it was 3.65 µM; with SW-620 colon it was 3.23 µM. The TGI was more than 100 µM with A549 NSCLC; 24.8 µM in the test with HS 578T breast; more than 100 µM with MOLT-4 leukemia; more than 100 µM in the test on PC-3 prostate; more than 43.6 µM in the test on SNB-19 CNS; 16 µM in the test with SW-620 colon.
Consider `CCCCCCc1cc2cc(-c3csc(/C=C/c4ccccc4)n3)c(=O)oc2cc1O`, for which the GI50 with A549 NSCLC is 4.27 µM; in the test with HS 578T breast, 9 µM; in the test on MOLT-4 leukemia it was 3.72 µM; with PC-3 prostate, 5.39 µM; in the test on SNB-19 CNS it was 10.3 µM; in the test with SW-620 colon, 5.6 µM. The TGI with A549 NSCLC worked out at 19 µM; in the test with HS 578T breast, 42.7 µM; with MOLT-4 leukemia, 15.1 µM; in the test with PC-3 prostate, 34.4 µM; with SNB-19 CNS, 34.3 µM; with SW-620 colon, 20.7 µM.
Consider `COc1ccc(C2CC(c3ccc4ccccc4c3)=NN2c2nc(O)c(C3=c4cc(OC)ccc4=NC3=O)s2)cc1` (configuration not stated), for which the GI50 with A549 NSCLC is 0.0612 µM; with HS 578T breast, 0.0418 µM; with MOLT-4 leukemia, 0.11 µM; in the test on PC-3 prostate, 0.0675 µM; in the test with SNB-19 CNS it was 0.0897 µM; in the test with SW-620 colon, 0.0249 µM. Further, the TGI with A549 NSCLC was 0.223 µM; in the test with HS 578T breast, 0.614 µM; in the test with MOLT-4 leukemia it was 0.91 µM; in the test with PC-3 prostate, 0.334 µM; in the test with SNB-19 CNS it was 0.592 µM; in the test on SW-620 colon it was 0.0658 µM.
Take `CCOc1cc(/C=C/C(=O)C(C(=O)/C=C/c2ccc(OC(=O)CNc3nnc(C)s3)c(OCC)c2)C(=O)CNc2nnc(C)s2)ccc1OC(=O)CNc1nnc(C)s1`: the GI50 in the test on A549 NSCLC was 2.36 µM; with HS 578T breast, 2.28 µM; in the test with MOLT-4 leukemia, 0.681 µM; in the test on PC-3 prostate, 1.51 µM; in the test on SNB-19 CNS it was 2.52 µM; in the test with SW-620 colon, 1.18 µM. Further, the TGI is 7.44 µM with A549 NSCLC; 12.4 µM in the test with HS 578T breast; 6.56 µM in the test on MOLT-4 leukemia; 15.6 µM with PC-3 prostate; 11.1 µM in the test with SNB-19 CNS; 2.74 µM in the test on SW-620 colon.
As for `CCC(C)(C)[C@H](NC(=O)[C@H]1CCCCN1C)C(=O)N(C)[C@H](C[C@@H](OC(C)=O)c1nc(C(=O)N[C@@H](Cc2ccccc2)C[C@H](C)C(=O)O)cs1)C(C)C`, the GI50 with A549 NSCLC, with HS 578T breast, in the test on MOLT-4 leukemia, in the test on PC-3 prostate, with SNB-19 CNS and in the test on SW-620 colon was less than 0.00167 µM in each case. In addition, the TGI in the test on A549 NSCLC is more than 16.7 µM; in the test on HS 578T breast it was more than 11.5 µM; in the test with MOLT-4 leukemia, more than 16.7 µM; with PC-3 prostate, more than 16.7 µM; in the test with SNB-19 CNS, more than 16.7 µM; in the test on SW-620 colon it was more than 16.7 µM.
As to `CS(=N)(=O)CCC(N)P(=O)(O)O` (configuration not stated), the TGI in the test on A549 NSCLC, in the test with HS 578T breast, with MOLT-4 leukemia, with PC-3 prostate, with SNB-19 CNS and with SW-620 colon was more than 100 µM in each case.
`O=C(NS(=O)(=O)c1ccc(NC[C@H]2COCCO2)c([N+](=O)[O-])c1)c1ccc(N2CCN(CC3=C(c4ccc(Cl)cc4)CC4(CCC4)CC3)CC2)cc1Oc1cnc2[nH]ccc2c1`: the GI50 in the test with A549 NSCLC is 3.08 µM; in the test with HS 578T breast, 2.12 µM; with MOLT-4 leukemia, 1.36 µM; in the test with PC-3 prostate, 2.43 µM; in the test on SNB-19 CNS it was 2.39 µM; in the test with SW-620 colon it was 2.47 µM. Also, the TGI is 14.2 µM with A549 NSCLC; 5.76 µM in the test on HS 578T breast; 5.22 µM in the test with MOLT-4 leukemia; 13.5 µM in the test with PC-3 prostate; 7.28 µM in the test with SNB-19 CNS; 6.6 µM in the test with SW-620 colon.
`O=C(Cc1ccc(Nc2ccnc(C(F)(F)F)c2)cc1)N/N=C/c1ccccc1O`: the GI50 is 4.49 µM with A549 NSCLC; 2.66 µM in the test with HS 578T breast; 0.904 µM in the test with MOLT-4 leukemia; 1.09 µM in the test on PC-3 prostate; 4.36 µM in the test on SNB-19 CNS; 3.02 µM with SW-620 colon. Besides, the TGI with A549 NSCLC is more than 100 µM; in the test on HS 578T breast, 29 µM; with MOLT-4 leukemia, 7.79 µM; with PC-3 prostate, 16.6 µM; in the test with SNB-19 CNS it was more than 100 µM; with SW-620 colon, 17 µM.
In the case of `CCN1C(=O)N(CC)C2C1NC(=S)N2/N=C/C=C/c1ccccc1OC` (configuration not stated), the GI50 is 0.0403 µM with A549 NSCLC; 0.0514 µM in the test with HS 578T breast; 0.0427 µM in the test with MOLT-4 leukemia; 0.0411 µM in the test on PC-3 prostate; 0.0482 µM in the test on SNB-19 CNS; 0.0475 µM in the test with SW-620 colon. For the same compound, the TGI in the test with A549 NSCLC, with HS 578T breast, with MOLT-4 leukemia, in the test on PC-3 prostate, in the test with SNB-19 CNS and in the test with SW-620 colon was more than 100 µM in each case.
On to `Brc1ccc(Nc2nc3ccccc3nc2Nc2ccc(Br)cc2)cc1`, for which the GI50 with A549 NSCLC is 0.393 µM; with HS 578T breast it was 2.9 µM; with MOLT-4 leukemia, 1.15 µM; in the test on PC-3 prostate, 0.637 µM; in the test with SNB-19 CNS it was 0.591 µM; in the test on SW-620 colon, 2.78 µM. Further, the TGI in the test with A549 NSCLC was 11 µM; with HS 578T breast, 9.05 µM; with MOLT-4 leukemia it was 9.45 µM; in the test on PC-3 prostate it was 10.4 µM; in the test on SNB-19 CNS, 12.2 µM; in the test with SW-620 colon, 10.5 µM.
For `CCN(CC)CC(O)COc1c(Br)c(Br)c(Br)c2c1OC(C)(C)C2` (configuration not stated), the GI50 in the test on A549 NSCLC is 3.49 µM; in the test with HS 578T breast, 4.58 µM; with MOLT-4 leukemia, 1.67 µM; in the test on PC-3 prostate, 2.81 µM; with SNB-19 CNS it was 9.22 µM; in the test with SW-620 colon, 2.26 µM. Further, the TGI in the test on A549 NSCLC was determined as 13.5 µM; in the test on HS 578T breast, 19 µM; with MOLT-4 leukemia it was 3.68 µM; in the test with PC-3 prostate it was 11.5 µM; in the test on SNB-19 CNS it was 33.9 µM; in the test on SW-620 colon it was 4.92 µM.

Source of the values: PubChem BioAssay (NCI).
